Here are results for three molecules from article PMC9820303, “^αN-Acetyl β-Endorphin Is an Endogenous Ligand of σ1Rs That Regulates Mu-Opioid Receptor Signaling by Exchanging G Proteins for σ2Rs in σ1R Oligomers” (International Journal of Molecular Sciences, 2022).

In one assay the test system is CCI CD1 mice. Description: Chronic sciatic nerve constriction injury (CCI), mechanical allodynia, von Frey test. The format is in vivo, mouse. The procedure: Implication of σ1Rs. […] Upper panel: the withdrawal thresholds of the contralateral and ipsilateral paws were measured before (indicated as 0) and up to 14 days after surgery. […] Middle panel: 0.3 and 3 nmol of ^αN-acetyl β-End 1–31 were administered icv 7 days after surgery, and the nociceptive threshold was evaluated at the indicated postinjection intervals (in minutes). For every time interval studied in min or days, * indicates a significant difference from the group that received saline instead of ^αN-acetyl β-End 1–31; ϕ significant difference from the effect of 3 nmol ^αN-acetyl β-End 1–31. […] All data are presented as the mean ± SD of six mice. ANOVA followed by the Holm–Sidak multiple comparisons test, p < 0.05, 1-β > 0.80. […] Upper panel: wild-type mice were injected icv with saline, ^αN-acetyl β-End 1–31 (1 nmol/mouse) or the combination of the σ1R agonist PPCC (3 nmol/mouse) plus ^αN-acetyl β-End 1–31 20 min before morphine and β-End 1–31. Analgesia was evaluated by the warm water (52 °C) tail-flick test at the interval postinjection corresponding to their peak effect, 30 min. Lower panel: σ1R^−/− mice received 1 nmol ^αN-acetyl β-End 1–31, 20 min before morphine and β-End 1–31 and analgesia was evaluated as described above. Eight mice were used per strain and treatment. * Significant difference with respect to the group treated with morphine or β-End 1–31 alone. ANOVA followed by the Holm–Sidak multiple comparisons test, p < 0.05, 1-β > 0.80.
After the basal mechanical sensitivity of the mice was tested, neuropathic pain was induced by chronic sciatic nerve constriction injury (CCI) surgery under isoflurane/oxygen anesthesia using the procedure described by Bennett and Xie with modifications. Briefly, a 0.5 cm incision was made in the right midthigh, the biceps femoris muscle was separated, and the sciatic nerve was exposed proximal to its trifurcation. Two ligatures (5/0 braided silk suture; Lorca Marin, Murcia, Spain, 70,014) were tied around this nerve approximately 1 mm apart until a short flick of the ipsilateral hind limb was observed. The incision was then closed in layers with a 4–0 Ethicon silk suture. The same procedure was used for sham surgery, except that the sciatic nerve was exposed but not ligated. The tactile pain threshold of both the ipsilateral and contralateral hind paws was then assessed before and on different days post-surgery. The mice were individually placed in a transparent plastic cage with a wire-mesh bottom that allowed full access to the paws. After a habituation period of 20 min, a mechanical stimulus was delivered to the plantar surface from below the floor of the test chamber to measure allodynia using an automatic von Frey apparatus (Ugo Basile #37,450, Comerio, Italy). A steel rod (0.5 mm diameter) was pushed against the hind paw over a 10 s period as the force increased from 0 to 10 g. When the mouse withdrew its hind paw, the mechanical stimulus was automatically stopped, and the force at which withdrawal occurred was recorded. At each time point, three separate threshold measurements were obtained from each hind paw and then averaged.

The next assay concerns the target T1, σ1R oligomers (Mus musculus, UniProt O55242).
T1 construct: The coding region of the full-length murine σ1R (AF004927); GST (N); made in house; host or cells: E. coli BL21 (KRX)
Description: In vitro made σ1R oligomers on agarose-σ1R. The format is biochemical, murine. The conditions noted are these: agarose-σ1R plus free σ1Rs (100 nM), Tris-HCl pH 7.4, 0.2% CHAPS, 2.5 mM CaCl2. The procedure: In ex vivo fishing assays performed on mouse solubilized brain membranes enriched in synaptosomes (SBM), our bait, agarose-covalently attached σ1Rs (agarose-σ1R), captured diverse prey, such as trimeric G proteins, σ1Rs and σ2Rs (Figure 4C). Because σ1Rs form oligomers in vivo that can be altered by ligands, we added in vitro free σ1Rs to agarose-σ1Rs. After removing the unbound σ1Rs, the extent of the σ1R oligomerization that remained around the agarose-σ1R was determined by SDS-PAGE followed by Western blot analysis (Figure S3).
Figure S4. In vitro made σ1R oligomers. A) Effect of σ1R ligands on the formation of σ1R oligomers.
Agarose (Θ)-attached σ1Rs were incubated for 30 min in the presence of recombinant free σ1Rs (100 nM) in 300 μL of 50 mM Tris-HCl (pH 7.4), 0.2% CHAPS, and 2.5 mM CaCl2. After removing unbound σ1R proteins, the assays were performed in the absence (control) or presence of increasing concentrations of σ1R ligands. The agarose-bound σ1R protein complexes were obtained by centrifugation, washed three times, solubilized in 2x Laemmli buffer containing β-mercaptoethanol, resolved by SDS-PAGE, and analyzed by Western blotting (for more details see Methods). […] The G proteins that remained bound to Θ-σ1R oligomers were determined as in Figure 4C. The arrows indicate an estimated afﬁnity of the ligand for σ1Rs, as determined through in vitro assays. […]

Assay [1] has as its system CD1 mice (wild-type and σ1R−/−). To be noted: single icv dose; cited from earlier work.
For the next assay, the target named is T2, σ1R oligomers-σ2R (Mus musculus, UniProt O55242).
T2 construct: The coding region of the full-length murine σ1R (AF004927); GST (N); made in house; host or cells: E. coli BL21 (KRX) for the σ1R bait; σ2R and further σ1R come from solubilised mouse cerebral cortex synaptosomes
Description: Ex vivo fishing assay: σ1R and σ2R of mouse cerebral cortex bound to agarose-σ1R oligomers. Type of assay: biochemical. To be noted: wild-type mouse cerebral cortex SBM; n = 3.

Assay [2] deals with [^125I]-Tyr^27 β-End 1–31 binding site (probably the σ1R site). The conditions noted are these: 5 pM [125I]-Tyr27 β-End 1–31; cited from earlier work. From the text: (§1) ^αN-acetyl β-End 1–31 prevented or alleviated a series of negative symptoms in animals, such as the brain injury caused by pMCAO, the convulsive syndrome promoted by icv-injection of NMDA, and mechanical allodynia caused by unilateral sciatic nerve CCI.

The next assay concerns MORs. To be noted: tritiated naloxone and morphine, mouse brain synaptosomes; cited from earlier work.
Source text: as §1

T1 sequence (O55242 whole entry): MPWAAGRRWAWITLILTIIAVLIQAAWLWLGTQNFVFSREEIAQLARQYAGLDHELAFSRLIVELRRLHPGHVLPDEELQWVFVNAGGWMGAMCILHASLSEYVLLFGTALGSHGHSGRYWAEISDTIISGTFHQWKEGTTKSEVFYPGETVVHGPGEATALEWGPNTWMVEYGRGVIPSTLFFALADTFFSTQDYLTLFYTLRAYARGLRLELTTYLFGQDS
T2 sequence (O55242 whole entry): as above
Description for σ1R oligomers-σ2R: (B) Θ-σ1R captured G proteins in CD1 wild-type and σ2R^−/− SBM. Ex vivo fishing assays were performed as described in Figure 4C. The data from σ2R^−/− solubilized cortical tissue were referred to the wild-type control (arbitrary value of 1). (C) The σ1R oligomers captured G proteins from σ2R^−/− mouse SBM. For each Gα subunit and the σ1R, the immunosignals in the absence of the acetylated peptide were the controls (C, value of 1). […] (A,B,D,E) Data are the mean ± SD, n = 3. Data were analyzed by pairwise Holm–Sidak multiple comparison tests following ANOVA: p < 0.05, 1-β > 0.80.
For fishing studies, solubilization of neural synaptosomes from cerebral cortices or PAG was carried out at 4 °C in RIPA buffer. The membranes were incubated at 4 °C for 16 h with agitation, and then centrifuged at 10,000× g for 5 min. The supernatant was cleared with 20 μL of Sepharose 4B (#17-0120-01, GE Healthcare) pre-equilibrated for 1 h at 4 °C, followed by centrifugation at 4300× g for 5 min. The σ1R was immobilized through covalent attachment to N-Hydroxysuccinimide (NHS)-activated Sepharose 4 fast flow (4FF, #17-0906-01; GE) according to the manufacturer’s instructions. […]

As to `Cl.O=C(OCCN1CCOCC1)C1(c2ccccc2)CCCCC1` [PRE084, 2-(4-morpholinethyl)-1-phenylcyclohexanecarboxylate hydrochloride, reference compound], in the assay on CCI CD1 mice (3 nmol icv together with 3 nmol ^αN-acetyl β-End 1–31), the “effect on the antiallodynic action of ^αN-acetyl β-End 1–31” value was “prevented the β-End 1–31 ^αN-acetyl derivative from diminishing the response of CCI mice in the von Frey test”.
As to “KKGE [β-End 28–31, C-terminal tetrapeptide of β-End 1–31]”, at σ1R oligomers, the “effect on in vitro made σ1R oligomers” value was “released σ1Rs from these oligomers”.
As to “^αN-acetyl β-End 1–31: β-End 1–31 acetylated at N terminal Y1, α position”, the “effect on mechanical allodynia, 0.3 nmol” value in the assay on CCI CD1 mice (0.3 nmol icv 7 days after CCI surgery, von Frey, 6 mice) is reported as “significantly reduced mechanical allodynia”. The “effect on mechanical allodynia, 3 nmol” value in the assay on CCI CD1 mice (3 nmol icv 7 days after CCI surgery, von Frey, 6 mice) is recorded as “practically restored the von Frey response to the levels observed presurgery”. Further, the “duration of clear protection” value in the assay on CCI CD1 mice (higher dose (3 nmol icv), partial protection for an additional 24 h) is 24 h. In addition, the “time after icv administration at which the beneficial effect was observed” value in the assay on CCI CD1 mice (icv, 7 days after CCI surgery) lay within 10 to 15 min. In assay [1], the “duration of the effect of a single dose on analgesia” value is listed as 24 h. The “effect on σ1R oligomerization and σ2R presence at the agarose-σ1R bait” value in the assay with σ1R oligomers-σ2R is “reduces the extent of σ1R oligomerization, and increases the association of σ2Rs with the bait”. Besides, the “fraction of [^125I]-Tyr^27 β-End 1–31 specific binding abolished” value in assay [2] is given as 20–30%. For the same molecule, the “affinity to MORs” value in the assay with MORs is listed as “μM range”. In addition, in the assay with σ1R oligomers, the “effect on in vitro made σ1R oligomers” value is “released σ1Rs from these oligomers”.
